Values of other authors, collected in patent EP0262930B1, “Process for forming a colour positive image” (KONICA CORPORATION, priority 1986, dated 1988).

Settings: partition coefficient n-octanol/water; solvents not desired in the color developing solution

CCCCCO [1-Pentanol]
log P: log P 0.4 or more

OCCOCc1ccccc1 [2-Benzyloxyethanol]
log P: log P 0.41

OCc1ccccc1 [Benzyl alcohol]
log P: log P 1.0

NCc1ccccc1 [Benzylamine]
log P: log P 0.4 or more

CCCCOCCOCCO [Diethylene glycol monobutyl ether]
log P: log P 0.41.

Oc1ccccc1 [Phenol]
log P: log P 0.4 or more

OCc1ccc(O)cc1 [p-Hydroxybenzyl alcohol]
log P: log P 0.4 or more

Cc1ccc(CO)cc1 [p-Tolylcarbinol]
log P: log P 1.36
